Assay results reported in patent US5198430A, “Inclusion complexes with silybinin, their preparation and pharmaceutical compositions containing them” (Istituto Biochimico Italiano Giovanni Lorenzini SpA, priority 1989, dated 1993).

What was measured:
in vivo = experiment: in vivo; parameters: species or system Wistar rats; conditions: po, 8 mg/kg
Experimental: The absorption of the complexes of the invention has been evaluated by orally administering an aqueous solution of the composition under examination and measuring by HPLC the Silybinin bile levels. This test has been preferred because it is well known that drugs of the Silymarin kind reach in the bile the highest concentration.
The experiments have been carried out on Wistar rats weighing 180-200 g to which the compositions under examination were administered by gastric intubation. The animals were kept on an empty stomach for 16 hours. The composition to be tested was dissolved in water containing 10% of gum Arabic and were prepared solutions so that each animal was administered,each time with an amount of 5 ml/kg of said solution.
Immediately after the treatment the animals were anaesthetized and operated to check the coledocous duct. A small tube was inserted therein and the bile was collected over a period of 24 hours.
For the analytical determination 1 ml bile was treated as described in the following publication: D. Lorenz et al, Pharmacokinetic Studies with Silymarin in Human Serum and Bile--Meth. and Find.Exptl.Clin.Pharmacol.6(10) 655-661 (1984).
in test A, there were administered 20 mg/kg of Silymarin, according to a known commercial formulation which corresponds to 8 mg/kg of pure Silybinin,
in test B, there were administered 8.79 mg/kg of Silybinin having a HPLC titre of 91%, which corresponds to 8 mg/kg of pure Silybinin, used such as without excipients, […]

[1] = Thermoanalytical studies (TG, DTG, DSC, TEA); format: physicochemical
Experimental: Thermoanalytical investigations were carried out on a Du Pont 990 Thermal Analyser System. TG (Thermogravimetry) DTG (Differential TG) DSC (Differential Scanning Calorimetry) and TEA (Thermal Evolution Analysis) curves of the drug, as well as those of its mechanical mixtures with DIMEB and HP-βCD and the complexes were taken simultaneously.

[2] = Resorption: excretion of Silybinin in rat bile after intragastric administration, quantitative TLC; parameters: species or system male Wistar SPF rats; conditions: in vivo, po, 5 mg/kg
Experimental: In a further experiment the resorption of Silymarin, Silybinin and of the complex of Example 6 was evaluated. For this purpose the excretion of Silybinin in the rat bile was determined in a conventional model experiment. Anesthetized male Wistar SPF rats kept under conventional conditions, were cannulated at the ductus choledochus. After intragastric administration of the test compound (5 mg Silybinin/kg) the bile fluid was collected for 5hr. The Silybinin content in the bile fluid was determined by quantitative thin layer chromatography.

[3] = pH 7.5
Experimental: Release experiments with Silybinin, Silymarin and the complex of this Example were carried out according to USP XXII, paddle apparatus at pH 7.5 and 37° C.

| Compound | 0-24 hr Silybinin in bile per rat (in vivo) [mcg/rat] | % excreted Silybinin (in vivo; rat, 1440 min) [%] | Bile 0-24 hr Silybinin level (in vivo; rat, 1440 min) [µg/mL] | temperature at which decomposition of the drug begins ([1]; DSC, FIG. 4, non-complexed Silybinin) | loss of weight up to 160° C. ([1]; first decomposition step) | start of second decomposition step ([1]; region of the cyclodextrin decomposition) | concentration at 24 h (in vivo; rat) [ng/mL] | dose excreted at 24 h (in vivo; rat) [%] | dose excreted at 5 h [2] [%] | release (solubility) [3] [%] |
| --- | --- | --- | --- | --- | --- | --- | --- | --- | --- | --- |
| Silybinin: β-cyclodextrin Inclusion Complex (Molar Ratio 1:1) [Example 1] | 256.6 | 11.7 | 17.6 | – | – | – | – | – | – | – |
| COc1cc(C2Oc3cc(C4Oc5cc(O)cc(O)c5C(=O)C4O)ccc3OC2CO)ccc1O (centres unmarked) [Silybinin] | 11.9 | – | – | about 130 °C | 4-5% | above 250 °C | 1000 | 0.6 | 0.21 | 0 |
